As usually defined, the inhibition is the change of the read-out against control, counted positive when it falls.

The values below come from publication PMC5766581, “NF-κB inducing kinase is a therapeutic target for systemic lupus erythematosus” (Nature Communications, 2018).

Assay [1] concerns p52 processing in human B cells. In words: p52 processing western blot in B cells. The class given is cell-based. Here is the method:
(§1) p52/p100 and β-actin were monitored by western blot as described previously. Briefly, p52 processing was detected after 6 or 18 h of stimulation. Mouse and human RPTEC cells were stimulated with recombinant mouse or human TWEAK (100 ng/mL, R&D Systems). Primary B cells were isolated by negative selection (Miltenyi) from either mouse spleen or human whole blood. Human primary B cells were stimulated with either rhCD40L (10 μg/mL) or rhBAFF (400 ng/mL) (R&D Systems). Mouse primary B cells were stimulated with either anti-CD40 (10 μg/mL, BD Biosciences) or rmBAFF (400 ng/mL). After 6 or 18 h, whole cell extracts were generated using RIPA buffer (with protease and phosphatase inhibition), and approximately 10 μg of total protein was monitored for p52/p100 and β-Actin by western blot. HeLa cells (ATCC) were stimulated for 8 h with anti-LTβR agonist antibody and cytoplasmic and nuclear extracts were generated using kits purchase from Thermo Scientific and approximately […] of each extract was monitored for p52/p100, phospho-RelA, RelA, or β-Actin, Histone H3, or Lamin B1 controls. Uncropped western blots, as required by journal policies, are provided in Supplementary Fig. 13 and 14.

Assay [2] concerns p52 processing in murine B cells. In words: p52 processing western blot in B cells. The assay is classed as cell-based. The following applies: mouse B cells. Here is the method: as §1
For orientation: A western blot detects proteins with antibodies after separation by electrophoresis.

For assay [3], the system named is C57BL/6 mice. In words: Delayed-type hypersensitivity model. The conditions noted are these: 200 mg/kg BID P.O. The class given is in vivo, mouse. Here is the method:
Mice were immunized with OVA (100 μg, SC) (Sigma) in complete Freund’s adjuvant (Spectrum Chemicals and Laboratory Products) on day 0 and then challenged again with OVA (10 μg in PBS, SC right ear) on day 6. Ear thickness was measured by calipers, and unchallenged ear thickness was subtracted from OVA challenged ear thickness after 24 and 44 h. […] Investigators were not blinded to experimental samples.

For another assay, the target named is T1, CDK5/p25 (Homo sapiens, UniProt Q00535).
T1 construct: purchased Invitrogen / ThermoFisher SelectScreen
Nature of the assay: SelectScreen kinase panel. The class given is biochemical.

A further assay has as its target T2, AVCR2B (Homo sapiens, UniProt Q13705).
T2 construct: purchased Invitrogen / ThermoFisher SelectScreen
Nature of the assay: SelectScreen kinase panel. The assay is classed as binding. Here is the method:
(§2) The ability of NIK to catalyze the hydrolysis of adenosine-5′-triphosphate (ATP) was monitored using the Transcreener ADP (adenosine-5′-diphosphate) assay (Bell Brook Labs, Fitchburg, WI). Purified human NIK kinase domain (a.a. 340–694) (0.5 nM) or mouse NIK kinase domain (a.a. 329–675) (1 nM) derived from a baculovirus-infected insect cell expression system was incubated with test compounds for 0.5–2 h in 50 mM HEPES buffer (pH 7.2) containing 10 mM MgCl2, 2 mM dithiothreitol, 10 μM ATP, 0.01% Triton X-100, 0.1% gamma-globulins from bovine blood, 1% dimethylsulfoxide (DMSO), 7 μg/mL ADP antibody and 5 nM ADP-MR121 633 tracer. Reactions were quenched by the addition of 20 mM EDTA and 0.01% Brij 35. The tracer bound to the antibody was displaced by the ADP generated during the NIK reaction, which caused a decrease in fluorescence polarization that was measured by laser excitation at 633 nm with a Fluorescence Correlation Spectroscopy Plus reader (Evotec AG). Equilibrium dissociation constant (Ki) values for NIK inhibitors are calculated from plots of activity vs. inhibitor concentration using Morrison’s quadratic equation that accounts for the potential of tight binding, and by also applying the conversion factor that accounted for competitive inhibition and the concentration of substrate used in the assay relative to its Michaelis constant (Km). The Ki values with hPKD1 (PKCμ) were determined using the same assay conditions as for NIK. Ki measurements for hKHS1 and hLRRK2, as well as broad kinase selectivity profiling for SMI1, were carried out by Invitrogen using their SelectScreen kinase assay panel (ThermoFisher Scientific, Madison, WI). The vendor offered two types of kinase activity assays, a peptide phosphorylation assay (Z′-LYTE) and an ADP quantitation assay (Adapta), as well as one type of kinase ATP site competitive binding assay (LanthaScreen). See vendor web site for technology and protocol details for each specific kinase assay.
(§3) The average % Inhibition of each kinase is reported (Supplementary Table 1).

Another assay deals with T3, WEE1 (Homo sapiens, UniProt P30291).
T3 construct: purchased Invitrogen / ThermoFisher SelectScreen
In words: SelectScreen kinase panel. The class given is binding. Here is the method: as §2, §3

Another assay has as its target T4, DDR1 (Homo sapiens, UniProt Q08345).
T4 construct: purchased Invitrogen / ThermoFisher SelectScreen
Nature of the assay: SelectScreen kinase panel. The assay is classed as binding. Here is the method: as §2, §3

The target of a further assay is T5, BMPR1A (Homo sapiens, UniProt P36894).
T5 construct: purchased Invitrogen / ThermoFisher SelectScreen
Nature of the assay: SelectScreen kinase panel. The assay is classed as binding. Here is the method:
as §2, §3

The next assay addresses T6, TTK (Homo sapiens, UniProt P33981).
T6 construct: purchased Invitrogen / ThermoFisher SelectScreen
Nature of the assay: SelectScreen kinase panel. The assay is classed as binding. Here is the method:
as §2, §3

A further assay concerns the target T7, MEK1 (Homo sapiens, UniProt Q02750).
T7 construct: purchased Invitrogen / ThermoFisher SelectScreen
Nature of the assay: SelectScreen kinase panel. The assay is classed as binding. Here is the method:
as §2, §3

For a further assay, the target named is T8, EphA3 (Homo sapiens, UniProt P29320).
T8 construct: purchased Invitrogen / ThermoFisher SelectScreen
In words: SelectScreen kinase panel. The assay is classed as binding. Here is the method: as §2, §3

In a further assay the target is T9, JNK3 (Homo sapiens, UniProt P53779).
T9 construct: purchased Invitrogen / ThermoFisher SelectScreen
In words: SelectScreen kinase panel. The class given is binding. Here is the method: as §2, §3

For another assay, the target named is T10, SLK (Homo sapiens, UniProt Q9H2G2).
T10 construct: purchased Invitrogen / ThermoFisher SelectScreen
In words: SelectScreen kinase panel. The class given is binding. Here is the method: as §2, §3

In a further assay the target is T11, TEC (Homo sapiens, UniProt P42680).
T11 construct: purchased Invitrogen / ThermoFisher SelectScreen
Nature of the assay: SelectScreen kinase panel. The assay is classed as binding. Here is the method:
as §2, §3

In the next assay the target is T12, ZAK (Homo sapiens, UniProt Q9NYL2).
T12 construct: purchased Invitrogen / ThermoFisher SelectScreen
In words: SelectScreen kinase panel. The assay is classed as binding. Here is the method: as §2, §3

Another assay deals with T13, MKNK2 (Homo sapiens, UniProt Q9HBH9).
T13 construct: purchased Invitrogen / ThermoFisher SelectScreen
Nature of the assay: SelectScreen kinase panel. The class given is binding. Here is the method: as §2, §3

The next assay concerns the target T14, MEKK2 (Homo sapiens, UniProt Q9Y2U5).
T14 construct: purchased Invitrogen / ThermoFisher SelectScreen
Nature of the assay: SelectScreen kinase panel. The class given is binding. Here is the method: as §2, §3

A further assay concerns the target T15, CAMKK2 (Homo sapiens, UniProt Q96RR4).
T15 construct: purchased Invitrogen / ThermoFisher SelectScreen
Nature of the assay: SelectScreen kinase panel. The assay is classed as binding. Here is the method:
as §2, §3

A further assay has as its target T16, TNK2 (Homo sapiens, UniProt Q07912).
T16 construct: purchased Invitrogen / ThermoFisher SelectScreen
Nature of the assay: SelectScreen kinase panel. The assay is classed as binding. Here is the method:
as §2, §3

The target in another assay is T17, MKK6 (Homo sapiens, UniProt P52564).
T17 construct: purchased Invitrogen / ThermoFisher SelectScreen
Nature of the assay: SelectScreen kinase panel. The assay is classed as binding. Here is the method:
as §2, §3

The next assay relates to human B cells. Nature of the assay: Human B cell rhCD40L proliferation assay. The assay is classed as cell-based. The following applies: Homo sapiens, B-cell; thymidine incorporation, day four; read-out: Human B cell anti-CD40 proliferation IC50. A general note: Incorporation of labelled thymidine or its analogues reports DNA synthesis.
Assay [4] relates to C57BL/6 mice. Nature of the assay: Seven-day in vivo B cell survival model. Details: species or system mouse.
The test system of assay [5] is 222 recombinant human kinases. In words: SelectScreen kinase panel, overall selectivity. The assay is classed as biochemical. The following applies: 1 μM. Here is the method: as §2, with “Reactions were quenched by the addition of 20 mM EDTA and 0.01% Brij 35.” left out, “Ki measurements for hKHS1 and hLRRK2, as well as broad kinase selectivity profiling for SMI1, were carried out by Invitrogen using their SelectScreen kinase assay panel (ThermoFisher Scientific, Madison, WI). The vendor offered two types of kinase activity assays, a peptide phosphorylation assay (Z′-LYTE) and an ADP quantitation assay (Adapta), as well as one type of kinase ATP site competitive binding assay (LanthaScreen). See vendor web site for technology and protocol details for each specific kinase assay.” left out

T9 sequence (P53779 whole entry): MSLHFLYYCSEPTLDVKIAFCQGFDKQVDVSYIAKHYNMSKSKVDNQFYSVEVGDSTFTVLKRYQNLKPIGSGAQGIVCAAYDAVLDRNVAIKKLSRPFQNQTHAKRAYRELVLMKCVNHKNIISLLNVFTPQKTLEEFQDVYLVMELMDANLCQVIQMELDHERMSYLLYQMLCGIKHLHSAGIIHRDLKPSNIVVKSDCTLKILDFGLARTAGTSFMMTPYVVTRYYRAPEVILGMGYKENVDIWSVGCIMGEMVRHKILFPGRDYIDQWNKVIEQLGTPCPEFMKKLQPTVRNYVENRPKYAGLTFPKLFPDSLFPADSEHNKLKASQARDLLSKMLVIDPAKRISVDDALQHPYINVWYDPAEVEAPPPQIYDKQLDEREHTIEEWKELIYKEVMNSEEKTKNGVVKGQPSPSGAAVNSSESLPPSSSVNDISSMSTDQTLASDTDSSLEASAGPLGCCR
T5 sequence (P36894 24-532): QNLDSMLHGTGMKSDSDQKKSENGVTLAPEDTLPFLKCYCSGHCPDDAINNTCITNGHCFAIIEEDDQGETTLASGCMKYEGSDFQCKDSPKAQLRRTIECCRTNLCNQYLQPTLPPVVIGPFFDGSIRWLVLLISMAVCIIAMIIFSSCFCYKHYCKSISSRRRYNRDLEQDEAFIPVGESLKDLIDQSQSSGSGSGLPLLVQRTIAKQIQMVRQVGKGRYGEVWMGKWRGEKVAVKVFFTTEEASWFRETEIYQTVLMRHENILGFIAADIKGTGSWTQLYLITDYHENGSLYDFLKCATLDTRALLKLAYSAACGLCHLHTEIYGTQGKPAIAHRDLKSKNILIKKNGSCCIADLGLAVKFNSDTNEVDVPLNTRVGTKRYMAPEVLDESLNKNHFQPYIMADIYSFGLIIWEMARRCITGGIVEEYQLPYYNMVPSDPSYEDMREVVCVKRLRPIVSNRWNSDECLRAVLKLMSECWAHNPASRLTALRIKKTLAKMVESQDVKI
T15 sequence (Q96RR4 whole entry): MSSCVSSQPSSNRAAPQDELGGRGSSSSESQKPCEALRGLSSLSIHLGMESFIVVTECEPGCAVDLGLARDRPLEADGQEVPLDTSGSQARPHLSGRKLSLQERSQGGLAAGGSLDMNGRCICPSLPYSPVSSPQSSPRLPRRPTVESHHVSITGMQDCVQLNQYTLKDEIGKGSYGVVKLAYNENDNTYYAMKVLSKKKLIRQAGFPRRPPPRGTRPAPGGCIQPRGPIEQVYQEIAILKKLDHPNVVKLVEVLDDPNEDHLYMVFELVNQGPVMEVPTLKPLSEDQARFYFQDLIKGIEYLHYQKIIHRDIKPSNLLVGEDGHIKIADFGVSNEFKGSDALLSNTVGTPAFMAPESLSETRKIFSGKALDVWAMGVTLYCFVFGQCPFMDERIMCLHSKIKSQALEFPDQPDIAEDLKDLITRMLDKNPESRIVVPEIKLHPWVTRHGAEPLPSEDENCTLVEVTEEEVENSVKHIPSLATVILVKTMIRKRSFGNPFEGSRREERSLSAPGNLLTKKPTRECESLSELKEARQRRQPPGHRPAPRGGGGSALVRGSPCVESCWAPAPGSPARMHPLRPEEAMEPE
T11 sequence (P42680 whole entry): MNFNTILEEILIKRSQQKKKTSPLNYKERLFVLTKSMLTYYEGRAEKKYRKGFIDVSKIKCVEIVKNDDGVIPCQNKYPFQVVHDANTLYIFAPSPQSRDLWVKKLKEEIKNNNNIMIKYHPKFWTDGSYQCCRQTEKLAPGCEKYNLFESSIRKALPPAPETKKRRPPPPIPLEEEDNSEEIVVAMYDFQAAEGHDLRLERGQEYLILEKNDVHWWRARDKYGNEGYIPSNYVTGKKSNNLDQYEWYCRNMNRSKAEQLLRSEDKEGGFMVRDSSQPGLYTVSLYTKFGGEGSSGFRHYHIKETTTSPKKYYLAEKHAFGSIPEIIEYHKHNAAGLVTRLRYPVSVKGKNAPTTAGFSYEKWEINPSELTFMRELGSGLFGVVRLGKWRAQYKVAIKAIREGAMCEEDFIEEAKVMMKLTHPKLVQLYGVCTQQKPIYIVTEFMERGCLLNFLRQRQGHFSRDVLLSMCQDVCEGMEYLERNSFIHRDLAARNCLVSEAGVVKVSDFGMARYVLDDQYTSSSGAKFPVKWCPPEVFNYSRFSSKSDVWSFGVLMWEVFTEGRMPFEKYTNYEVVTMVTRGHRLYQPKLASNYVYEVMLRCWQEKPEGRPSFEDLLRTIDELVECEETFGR
T3 sequence (P30291 whole entry): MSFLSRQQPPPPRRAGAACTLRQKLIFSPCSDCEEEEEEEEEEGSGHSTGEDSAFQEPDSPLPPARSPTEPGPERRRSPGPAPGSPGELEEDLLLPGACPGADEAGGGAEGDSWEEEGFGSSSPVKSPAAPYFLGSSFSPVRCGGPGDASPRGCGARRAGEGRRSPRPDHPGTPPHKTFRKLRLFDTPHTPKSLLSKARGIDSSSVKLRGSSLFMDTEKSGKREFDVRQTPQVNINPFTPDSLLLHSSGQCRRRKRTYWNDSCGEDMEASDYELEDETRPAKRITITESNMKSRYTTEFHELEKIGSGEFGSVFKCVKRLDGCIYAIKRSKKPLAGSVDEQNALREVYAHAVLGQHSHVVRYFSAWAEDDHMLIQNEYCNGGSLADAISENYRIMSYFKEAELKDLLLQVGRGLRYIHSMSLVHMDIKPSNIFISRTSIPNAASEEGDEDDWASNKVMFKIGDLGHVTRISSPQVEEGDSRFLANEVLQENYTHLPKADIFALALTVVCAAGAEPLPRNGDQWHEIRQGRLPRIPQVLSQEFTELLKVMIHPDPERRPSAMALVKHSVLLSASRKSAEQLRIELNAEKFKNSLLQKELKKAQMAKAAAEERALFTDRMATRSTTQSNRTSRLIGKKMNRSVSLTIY
T16 sequence (Q07912 whole entry): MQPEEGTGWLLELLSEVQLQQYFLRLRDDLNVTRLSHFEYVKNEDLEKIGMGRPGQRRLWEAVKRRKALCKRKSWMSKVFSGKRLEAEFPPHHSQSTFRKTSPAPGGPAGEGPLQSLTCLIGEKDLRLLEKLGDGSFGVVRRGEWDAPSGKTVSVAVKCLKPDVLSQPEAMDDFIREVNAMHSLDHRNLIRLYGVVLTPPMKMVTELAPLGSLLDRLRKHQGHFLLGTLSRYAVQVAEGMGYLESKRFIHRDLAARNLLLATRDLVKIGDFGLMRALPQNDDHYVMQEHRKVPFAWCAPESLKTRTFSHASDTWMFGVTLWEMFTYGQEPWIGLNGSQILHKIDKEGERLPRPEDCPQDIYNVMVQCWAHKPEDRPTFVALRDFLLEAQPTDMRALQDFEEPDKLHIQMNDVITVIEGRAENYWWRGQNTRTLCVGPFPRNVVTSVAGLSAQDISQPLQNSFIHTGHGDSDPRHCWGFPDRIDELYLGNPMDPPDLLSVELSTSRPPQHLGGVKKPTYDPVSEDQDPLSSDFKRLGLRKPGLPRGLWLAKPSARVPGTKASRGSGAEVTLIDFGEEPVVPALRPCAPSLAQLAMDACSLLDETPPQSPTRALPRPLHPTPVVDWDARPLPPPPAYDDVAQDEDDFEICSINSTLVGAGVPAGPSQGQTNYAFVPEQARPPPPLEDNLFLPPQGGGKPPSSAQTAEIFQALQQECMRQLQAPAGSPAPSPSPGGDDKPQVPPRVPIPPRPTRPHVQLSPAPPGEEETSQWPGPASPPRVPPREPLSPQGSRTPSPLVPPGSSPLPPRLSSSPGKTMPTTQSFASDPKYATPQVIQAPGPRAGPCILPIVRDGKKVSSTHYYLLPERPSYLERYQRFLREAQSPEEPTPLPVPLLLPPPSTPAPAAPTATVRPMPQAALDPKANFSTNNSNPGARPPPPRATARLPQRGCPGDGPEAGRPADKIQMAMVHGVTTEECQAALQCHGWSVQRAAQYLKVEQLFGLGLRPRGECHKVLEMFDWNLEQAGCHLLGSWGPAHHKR
T4 sequence (Q08345 19-913): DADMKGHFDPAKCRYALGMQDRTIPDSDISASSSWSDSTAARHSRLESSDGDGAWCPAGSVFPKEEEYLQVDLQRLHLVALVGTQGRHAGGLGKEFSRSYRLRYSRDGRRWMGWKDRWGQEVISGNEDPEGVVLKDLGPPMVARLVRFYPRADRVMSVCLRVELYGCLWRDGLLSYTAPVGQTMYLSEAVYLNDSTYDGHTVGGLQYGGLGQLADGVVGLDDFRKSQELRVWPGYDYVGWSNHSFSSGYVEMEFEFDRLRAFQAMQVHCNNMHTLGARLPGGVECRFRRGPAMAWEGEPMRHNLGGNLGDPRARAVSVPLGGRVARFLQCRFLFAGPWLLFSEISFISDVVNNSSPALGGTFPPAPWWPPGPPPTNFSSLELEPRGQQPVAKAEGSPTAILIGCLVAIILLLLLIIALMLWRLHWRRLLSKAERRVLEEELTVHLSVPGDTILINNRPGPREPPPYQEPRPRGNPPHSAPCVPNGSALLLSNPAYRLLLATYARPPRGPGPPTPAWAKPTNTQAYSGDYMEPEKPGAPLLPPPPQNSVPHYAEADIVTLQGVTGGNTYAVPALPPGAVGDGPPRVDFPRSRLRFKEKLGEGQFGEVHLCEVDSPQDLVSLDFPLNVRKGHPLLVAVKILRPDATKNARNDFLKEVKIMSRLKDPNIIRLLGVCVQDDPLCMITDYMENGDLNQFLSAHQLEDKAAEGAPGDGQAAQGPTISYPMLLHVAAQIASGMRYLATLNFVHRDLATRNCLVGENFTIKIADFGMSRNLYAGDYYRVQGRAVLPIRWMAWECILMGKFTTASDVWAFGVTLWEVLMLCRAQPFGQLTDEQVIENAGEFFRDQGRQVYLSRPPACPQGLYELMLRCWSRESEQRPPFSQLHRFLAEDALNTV

As to `COc1cc(C(N)=O)nc(-c2cccc(C#C[C@]3(O)CCN(C)C3=O)c2)c1` [NIK SMI1], the “BAFF-induced and CD40-induced p52 processing” value in [1] and in [2] was “significantly inhibited” each time. Further, the “effect in delayed type hypersensitivity study” value in the assay on C57BL/6 mice [3] is “partial effect”. Further, the inhibition at 1 µM on CDK5/p25 is 2.5%; against AVCR2B, 0.8%; against WEE1, 6.2%; against DDR1, 2.7%; against BMPR1A, -3.9%; against TTK, 13.2%. For the same compound, the inhibition at 1 µM against MEK1 is 43.1%; at EphA3 it was -5.2%; at JNK3 it was 4.6%; against SLK it was 2.6%; at TEC, 1.1%; at ZAK, -0.8%. Besides, the inhibition at 1 µM against MKNK2 stood at 23.3%; against MEKK2 it was 66.8%; against CAMKK2 it was 1.1%; against TNK2, 0.1%; against MKK6, 13.2%. Besides, the IC50 with human B cells is over 10 µM. Also, the “splenic cellularity, frequency and absolute numbers of total B2, marginal zone and follicular B cells in the spleen” value with C57BL/6 mice [4] (6-400 mg/kg BID oral, 7 days) is recorded as “dose-dependently reduced”. Besides, in the assay with C57BL/6 mice [4] (after 1 week of treatment, oral BID), the “reduction of serum IgA levels” value is listed as “approximately 50%”. Further, the “off-target kinases inhibited to an extent >75%” value in [5] was 3 out of 222.
